Test results published in patent publication US11401253B2, “16-methyl-oxacyclohexadecan-2-one and 16-methyl-azacyclohexadecan-2-one derivatives as antimicrobial agents” (THE UNIVERSITY OF MONTANA, priority 2017, dated 2022).
In brackets after ≈: the same amount, converted by molar mass. Like-named read-outs stand apart in the source and are kept apart here.

Columns and labels:
[1] = tested on: non-replicating persistence Mycobacterium tuberculosis (NRP-TB); test: Low oxygen recovery assay (LORA), non-replicating persistence Mtb; format: cell-based; conditions: Mycobacterium tuberculosis, read-out: MIC, LORA
[2] = tested on: Vero cell; test: Cytotoxicity (MTS), Vero cells; format: cell-based, monkey; conditions: Primates, 72 hours exposure
[3] = tested on: HepG2; test: Cytotoxicity (MTS), HepG2 cells; format: cell-based; conditions: Homo sapiens, 72 hours exposure
[4] = tested on: J774; test: Cytotoxicity (MTS), J774 cells; format: cell-based, murine; conditions: Mus musculus, 72 hours exposure
[5] = tested on: Mycobacterium tuberculosis; test: microbe, parasite or virus in culture; conditions: read-out: MIC, MABA
[6] = tested on: C. albicans; test: Antibiotic testing (MIC), C. albicans; format: cell-based; conditions: Candida albicans; growth inhibition ≥90%; read-out: minimum inhibitory concentration, C. albicans
[7] = tested on: B. anthracis; test: microbe, parasite or virus in culture; format: cell-based; conditions: Bacillus anthracis, read-out: minimum inhibitory concentration, B. anthracis
[8] = tested on: Staphylococcus aureus (13709); test: Antibiotic testing (MIC), S. aureus 13709; format: cell-based; conditions: growth inhibition ≥90% relative to drug-free controls, read-out: minimum inhibitory concentration, Staphylococcus aureus (13709)
[9] = tested on: Bacillus subtilis; test: Antibiotic testing (MIC), Bacillus subtilis; format: cell-based; conditions: growth inhibition ≥90%, read-out: minimum inhibitory concentration, Bacillus subtilis
[10] = tested on: K. pneumoniae (10031); test: Antibiotic testing (MIC), gram negative K. pneumoniae; format: cell-based; conditions: Klebsiella pneumoniae, read-out: MIC, K. pneumoniae (10031)
Procedure: (§1) None of this collection of compounds were active against Gram-negative bacteria
(§2) Additionally, BPL 76 and derivatives were tested against a panel of gram negative bacteria including K. pneumonia, P. aeruginosa and E. coli (Table 12).

[11] = tested on: S. aureus CAIRD116; test: Antibiotic testing, methicillin-resistant S. aureus CAIRD116; format: cell-based; conditions: methicillin-resistant strain; for MIC: Staphylococcus aureus, CAIRD116
Excerpt: (§3) Both the methyl ester and the diacetate derivatives of BPL 76 slightly less but still very strong activity against the same four MRSA strains (Table 11). The activities of compounds BPL 76 and BPL 81 were compared to several known antibiotics against three methicillin-resistant strains of S. aureus [FIG. 6, comparative data provided by Hartford Hospital, Center for Anti-Infective Research and Development (CAIRD)].

[12] = tested on: S. aureus CAIRD148; test: Antibiotic testing, methicillin-resistant S. aureus CAIRD148; format: cell-based; conditions: methicillin-resistant strain; for MIC: Staphylococcus aureus, CAIRD148
Excerpt: as §3

[13] = tested on: S. aureus CAIRD142; test: Antibiotic testing, methicillin-resistant S. aureus CAIRD142; format: cell-based; conditions: methicillin-resistant strain; for MIC: Staphylococcus aureus, CAIRD142
Excerpt: as §3

[14] = tested on: P. aeruginosa; test: Antibiotic testing (MIC), gram negative P. aeruginosa; format: cell-based; conditions: Pseudomonas aeruginosa, read-out: MIC, P. aeruginosa
Procedure: as §1, §2

[15] = tested on: E. coli (25922); test: Antibiotic testing (MIC), gram negative E. coli; format: cell-based; conditions: Escherichia coli, read-out: MIC, E. coli (25922)
Procedure: as §1, §2

[16] = tested on: S. aureus (NE277); test: Antibiotic testing, methicillin-resistant S. aureus NE277; format: cell-based; conditions: for MIC: Staphylococcus aureus, read-out: antibiotic testing data (MIC), S. aureus (NE277); for antibiotic testing data (MIC), S. aureus (NE277): methicillin-resistant strain
Excerpt: as §3

[17] = tested on: Streptococcus pyogenes; test: Antibiotic testing (MIC), Streptococcus pyogenes; format: cell-based; conditions: growth inhibition ≥90%, read-out: minimum inhibitory concentration, Streptococcus pyogenes
[18] = tested on: Candida glabrata; test: Antibiotic testing (MIC), Candida glabrata; format: cell-based; conditions: Nakaseomyces glabratus; growth inhibition ≥90%; read-out: minimum inhibitory concentration, Candida glabrata
[19] = molecular target: T1, MMP-3 (Homo sapiens, UniProt P08254); test: MMP-3 enzyme inhibition assay; format: biochemical
T1 construct: purchased BioMol
Procedure: The two fungi were also co-cultured under controlled conditions. P. fuscum was grown in pure culture in potato dextrose broth (10×400 mL). After 24 h, an agar cube (8 mm^3) impregnated with P. camembertii/clavigerum mycelium was added to each flask and the resulting co-culture was shaken for 6 more days (200 rpm, room temperature). At time of harvest, methanol (50 mL/flask) was added, the mycelia were removed by gravity filtration and the broth was extracted with chloroform (3×2 L). The chloroform was removed in vacuo to yield 663 mg of crude extract. The crude extract was verified to be active in the MMP-3, caspase-1 and caspase-3 enzyme inhibition assays. Enzyme inhibitory activity was determined using specific BioMol enzyme inhibition assay kits for drug discovery as described in Stierle, A; Stierle, D. The Berkeleylactones, Antibiotic Macrolides from Fungal Coculture. J. Nat. Prod. 80, 4, 1150-1160.

[20] = tested on: Mycobacterium tuberculosis; conditions: normal (replicating) conditions; known antibiotics
[21] = non-replicating persistence conditions, known antibiotics

T1 sequence (P08254 100-477): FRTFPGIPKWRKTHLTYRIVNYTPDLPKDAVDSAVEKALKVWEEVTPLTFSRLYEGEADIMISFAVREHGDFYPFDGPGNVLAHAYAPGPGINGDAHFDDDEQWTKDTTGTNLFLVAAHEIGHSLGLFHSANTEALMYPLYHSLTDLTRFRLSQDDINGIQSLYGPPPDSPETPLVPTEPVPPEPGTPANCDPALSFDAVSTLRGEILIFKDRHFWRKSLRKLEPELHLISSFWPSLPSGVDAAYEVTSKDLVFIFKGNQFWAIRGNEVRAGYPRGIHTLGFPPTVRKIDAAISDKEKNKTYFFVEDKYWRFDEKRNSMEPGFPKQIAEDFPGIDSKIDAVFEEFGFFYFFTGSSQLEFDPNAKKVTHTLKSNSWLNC

CO[C@H]1/C=C/O[C@@]2(C)Oc3c(C)c(O)c4c(O)c(c(/C=N/N5CCN(C)CC5)c(O)c4c3C2=O)NC(=O)/C(C)=C\C=C\[C@H](C)[C@H](O)[C@@H](C)[C@@H](O)[C@@H](C)[C@H](OC(C)=O)[C@@H]1C [RMP - Rifampicin, Rifampicin, reference compound] was tested, and the MIC [1] was 0.4 µM (≈ 0.329 µg/mL), the IC50 [2] was greater than 100 µg/mL and the IC50 [3] was greater than 100 µg/mL. The IC50 [4] was 95.8 µg/mL (≈ 116 µM) and the MIC [5] was greater than 0.1 µM.

With C[C@H]1OC(=O)/C=C/[C@@H](O)[C@@H](OC(=O)CCC(=O)O)CCCCCCCC[C@@H]1O [BPL 86, 4-(((5R,6S,15 S,16R,E)-5,15-dihydroxy-16-methyl-2-oxooxacyclohexadec-3-en-6-yl)oxy)-4-oxobutanoic acid] the MIC [6] was greater than 50 µg/mL, the MIC [7] was 24 µg/mL (≈ 59.9 µM) and the MIC [8] was 24 µg/mL (≈ 59.9 µM). The MIC [9] was greater than 50 µg/mL, the MIC [10] was greater than 125 µM and the MIC [11] was 47 µg/mL (≈ 117 µM). The “antibiotic testing data (MIC), S. aureus CAIRD116” value [11] was 125 µM, the MIC [12] was 47 µg/mL (≈ 117 µM) and the “antibiotic testing data (MIC), S. aureus CAIRD148” value [12] was 125 µM. The MIC [13] was 47 µg/mL (≈ 117 µM), the “antibiotic testing data (MIC), S. aureus CAIRD142” value [13] was 125 µM and the MIC [14] was greater than 125 µM. The MIC [15] was greater than 125 µM, the MIC [16] was 47 µg/mL (≈ 117 µM) and the “antibiotic testing data (MIC), S. aureus (NE277)” value [16] was 125 µM. For the same compound, the MIC [17] was greater than 50 µg/mL, the MIC [18] was greater than 50 µg/mL and the MMP-3 inhibition [19] was “weaker inhibitors”.

Compound NNC(=O)c1ccncc1 [INH - Isoniazid, Isoniazid, reference compound] has an MIC [1, 21] greater than 128 µM and an MIC [5] of 0.5 µM (≈ 0.0686 µg/mL).

For Cc1ncc([N+](=O)[O-])n1CCO [MET - Metronidazole, Metronidazole, reference compound], the MIC [1, 21] was 449 µM (≈ 76.8 µg/mL).

Work on COc1nc2ccc(Br)cc2cc1[C@@H](c1ccccc1)[C@@](O)(CCN(C)C)c1cccc2ccccc12 [TMC207, reference compound] yielded an MIC [1] of 0.1 µM (≈ 0.0556 µg/mL), an IC50 [2] greater than 10 µg/mL and an IC50 [3] greater than 10 µg/mL. The IC50 [4] was greater than 10 µg/mL and the MIC [5] was greater than 0.1 µM.

O=[N+]([O-])c1cn2c(n1)OC[C@@H](OCc1ccc(OC(F)(F)F)cc1)C2 [PA824, reference compound] was tested, and the MIC [1, 21] was 7 µM (≈ 2.51 µg/mL) and the MIC [5] was 0.2 µM (≈ 0.0719 µg/mL).

With O=C(O)CCC(=O)O[C@H]1CCCCCCCCC[C@@H](CO)OC(=O)/C=C/[C@H]1O [BPL 98, 4-(((5R,6S,16S,E)-5-hydroxy-16-(hydroxymethyl)-2-oxooxacyclohexadec-3-en-6-yl)oxy)-4-oxobutanoic acid] the MIC [6] was greater than 100 µg/mL, the MIC [7] was greater than 100 µg/mL and the MIC [8] was greater than 100 µg/mL. The MIC [9] was greater than 100 µg/mL, the MIC [11] was greater than 100 µg/mL and the “antibiotic testing data (MIC), S. aureus CAIRD116” value [11] was greater than 250 µM. The MIC [12] was greater than 100 µg/mL, the “antibiotic testing data (MIC), S. aureus CAIRD148” value [12] was greater than 250 µM and the MIC [13] was greater than 100 µg/mL. For the same compound, the “antibiotic testing data (MIC), S. aureus CAIRD142” value [13] was greater than 250 µM, the MIC [16] was greater than 100 µg/mL and the “antibiotic testing data (MIC), S. aureus (NE277)” value [16] was greater than 250 µM. For the same compound, the MIC [17] was greater than 100 µg/mL, the MIC [18] was greater than 100 µg/mL and the MMP-3 inhibition [19] was “weaker inhibitors”.

Work on CC(=O)NC[C@H]1CN(c2ccc(N3CCOCC3)c(F)c2)C(=O)O1 [LIZ - Linezolidum, Linezolidum, reference compound] yielded an MIC [1, 21] of 2 µM (≈ 0.675 µg/mL) and an MIC [5] of 2 µM (≈ 0.675 µg/mL).

With COc1c(N2C[C@@H]3CCCN[C@@H]3C2)c(F)cc2c(=O)c(C(=O)O)cn(C3CC3)c12 [MOX - Moxifloxicin, Moxifloxicin, reference compound] the “MIC, MABA” value [20] was 0.2 µM (≈ 0.0803 µg/mL).
